# Measurements: PubChem BioAssay (NCI)
#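 Compound exposure: 48 hours, 5 concentrations, 96-well plates. GI50 = concentration required for 50% inhibition of growth. TGI: concentration producing complete growth inhibition.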
# Assays:
# Assay in all cases: NCI anticancer screen, dose series, 48 h
# RXF 393 renal = test system: RXF 393 renal
# SF-295 CNS = test system: SF-295 CNS
# HS 578T breast = test system: HS 578T breast
# NCI-H460 lung = test system: NCI-H460 lung
# HL-60(TB) leukemia = test system: HL-60(TB) leukemia
# K-562 leukemia = test system: K-562 leukemia
# CCRF-CEM leukemia = test system: CCRF-CEM leukemia
# MDA-MB-435 = test system: MDA-MB-435
# UO-31 renal = test system: UO-31 renal
# LOX IMVI melanoma = test system: LOX IMVI melanoma
# HCT-116 colon = test system: HCT-116 colon
# DU-145 prostate = test system: DU-145 prostate
# NCI/ADR-RES ovarian = test system: NCI/ADR-RES ovarian
# SR leukemia = test system: SR leukemia
# KM12 colon = test system: KM12 colon
# HOP-62 NSCLC = test system: HOP-62 NSCLC
# ACHN renal = test system: ACHN renal
# RPMI-8226 leukemia = test system: RPMI-8226 leukemia
# UACC-257 melanoma = test system: UACC-257 melanoma
# SNB-75 CNS = test system: SNB-75 CNS
# SF-268 CNS = test system: SF-268 CNS
# SK-MEL-5 melanoma = test system: SK-MEL-5 melanoma
# MCF7 breast = test system: MCF7 breast
# OVCAR-3 ovarian = test system: OVCAR-3 ovarian
# HOP-92 NSCLC = test system: HOP-92 NSCLC
# OVCAR-8 ovarian = test system: OVCAR-8 ovarian
# A498 renal = test system: A498 renal
# TK-10 renal = test system: TK-10 renal
smiles,measurement,setting,value
COC(=O)N1CCN(CCNCc2ccc(NC(=O)c3ccc(C)c(C#Cc4cnc5cccnn45)c3)cc2C(F)(F)F)CC1,TGI,RXF 393 renal,3.21 µM
same,GI50,SF-295 CNS,1.54 µM
same,TGI,SF-295 CNS,3.03 µM
same,GI50,HS 578T breast,1.72 µM
same,TGI,HS 578T breast,5.04 µM
same,GI50,NCI-H460 lung,1.85 µM
same,TGI,NCI-H460 lung,3.76 µM
same,GI50,HL-60(TB) leukemia,0.342 µM
same,TGI,HL-60(TB) leukemia,3.22 µM
same,TGI,K-562 leukemia,> 100 µM
same,GI50,CCRF-CEM leukemia,1.46 µM
same,TGI,CCRF-CEM leukemia,8.22 µM
same,GI50,MDA-MB-435,1.08 µM
same,TGI,MDA-MB-435,2.39 µM
same,GI50,UO-31 renal,1.34 µM
same,TGI,UO-31 renal,3.14 µM
same,GI50,LOX IMVI melanoma,0.743 µM
same,TGI,LOX IMVI melanoma,2.05 µM
same,GI50,HCT-116 colon,0.63 µM
same,TGI,HCT-116 colon,2.32 µM
same,GI50,DU-145 prostate,2.22 µM
same,TGI,DU-145 prostate,4.77 µM
same,GI50,NCI/ADR-RES ovarian,2.02 µM
same,TGI,NCI/ADR-RES ovarian,6.24 µM
same,GI50,SR leukemia,0.796 µM
same,TGI,SR leukemia,22.1 µM
same,GI50,KM12 colon,0.434 µM
same,TGI,KM12 colon,1.73 µM
same,GI50,HOP-62 NSCLC,1.59 µM
same,TGI,HOP-62 NSCLC,3.43 µM
same,GI50,ACHN renal,2.32 µM
same,TGI,ACHN renal,6.85 µM
same,GI50,RPMI-8226 leukemia,1.37 µM
same,TGI,RPMI-8226 leukemia,4.32 µM
same,GI50,UACC-257 melanoma,1.53 µM
same,TGI,UACC-257 melanoma,3.27 µM
same,GI50,SNB-75 CNS,0.372 µM
same,TGI,SNB-75 CNS,1.95 µM
same,GI50,SF-268 CNS,2.08 µM
same,TGI,SF-268 CNS,4.78 µM
same,GI50,SK-MEL-5 melanoma,1.58 µM
same,TGI,SK-MEL-5 melanoma,2.97 µM
same,GI50,MCF7 breast,1.47 µM
same,TGI,MCF7 breast,3.06 µM
same,GI50,OVCAR-3 ovarian,2 µM
same,TGI,OVCAR-3 ovarian,4.2 µM
same,GI50,HOP-92 NSCLC,0.867 µM
same,TGI,HOP-92 NSCLC,2.83 µM
same,GI50,OVCAR-8 ovarian,1.82 µM
same,TGI,OVCAR-8 ovarian,4.35 µM
same,GI50,A498 renal,2.8 µM
same,TGI,A498 renal,7.35 µM
same,GI50,TK-10 renal,2.21 µM
same,TGI,TK-10 renal,5.07 µM
